Several values for one entry are separate records, joined by “and”; a condition that tells them apart may be missing. Equal values may be shown once. Inconclusive results and toxic doses are left out. Rule as the data show it: active = T/C of 150% or more; inactive = T/C below 125%.
Tested on: L1210 leukemia ip in BDF1 mice, survival T/C
Assay: NCI In Vivo Anticancer Drug Screen. Data for tumor model L1210 Leukemia (intraperitoneal) in B6D2F1 (BDF1) mice
Settings: endpoint: mean survival time, higher = longer survival
Procedure, shortened: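 Antitumor effect is assessed in tumor-bearing animals. Survival in the compound arm is compared with a vehicle-dosed control arm and expressed as their quotient.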

[1] = dose: 100.0 mg/kg/injection, schedule: Q01DX001 (ip), vehicle: saline with Tween-80
[2] = dose: 100.0 mg/kg/injection, schedule: Q04DX002 (ip), vehicle: Klucel (hydroxypropylcellulose) (HPC)
[3] = dose: 200.0 mg/kg/injection, schedule: Q04DX002 (ip), vehicle: Klucel (hydroxypropylcellulose) (HPC)
[4] = dose: 400.0 mg/kg/injection, schedule: Q04DX002 (ip), vehicle: Klucel (hydroxypropylcellulose) (HPC)
[5] = dose: 200.0 mg/kg/injection, schedule: Q01DX001 (ip), vehicle: saline with Tween-80
[6] = dose: 400.0 mg/kg/injection, schedule: Q01DX001 (ip), vehicle: saline with Tween-80
[7] = dose: 100.0 mg/kg/injection, schedule: Q01DX009 (ip), vehicle: Klucel (hydroxypropylcellulose) (HPC)
[8] = dose: 200.0 mg/kg/injection, schedule: Q01DX009 (ip), vehicle: Klucel (hydroxypropylcellulose) (HPC)
[9] = dose: 400.0 mg/kg/injection, schedule: Q01DX009 (ip), vehicle: Klucel (hydroxypropylcellulose) (HPC)
[10] = dose: 100.0 mg/kg/injection, schedule: Q04DX003 (ip), vehicle: Klucel (hydroxypropylcellulose) (HPC)
[11] = dose: 200.0 mg/kg/injection, schedule: Q04DX003 (ip), vehicle: Klucel (hydroxypropylcellulose) (HPC)
[12] = dose: 400.0 mg/kg/injection, schedule: Q04DX003 (ip), vehicle: Klucel (hydroxypropylcellulose) (HPC)
[13] = dose: 100.0 mg/kg/injection, schedule: Q01DX009 (ip), vehicle: saline with Tween-80
[14] = dose: 100.0 mg/kg/injection, schedule: Q04DX002 (ip), vehicle: saline with Tween-80
[15] = dose: 200.0 mg/kg/injection, schedule: Q04DX002 (ip), vehicle: saline with Tween-80
[16] = dose: 400.0 mg/kg/injection, schedule: Q04DX002 (ip), vehicle: saline with Tween-80
[17] = dose: 100.0 mg/kg/injection, schedule: Q04DX003 (ip), vehicle: saline

Measured: T/C

Cc1nn(-c2ccc(Cl)cc2)c(C)c1N=O
inactive: dose: 25.0 mg/kg/injection, schedule: Q01DX001 (ip), vehicle: saline with Tween-80 98 % of control | dose: 50.0 mg/kg/injection, schedule: Q01DX001 (ip), vehicle: saline with Tween-80 95 % of control | [1] 104 % of control

O=C1CCCCCCCCCCCCCC1
inactive: [2] 102 % of control | [3] 102 % of control | [4] 102 % of control

O=C1CCCCCCCCCC/C(=N/O)CCCO1
inactive: [1] 100 % of control | [5] 92 % of control | [6] 89 % of control

CCCCC(C#N)C(O)C1CCCCC1 (stereo unspecified)
inactive: dose: 100.0 mg/kg/injection, schedule: Q01DX001 (ip), vehicle: other 100 % of control | dose: 200.0 mg/kg/injection, schedule: Q01DX001 (ip), vehicle: other 103 % of control | dose: 400.0 mg/kg/injection, schedule: Q01DX001 (ip), vehicle: other 103 % of control

Cc1ccnc(NC(=O)NC2CCCCC2)c1
inactive: [2] 96 % of control | [3] 101 % of control | [4] 96 % of control

C=CCN(CC=C)P(=O)(N1CC1)N1CC1
inactive: dose: 6.2 mg/kg/injection, schedule: Q01DX001 (ip), vehicle: saline 88 % of control | dose: 12.5 mg/kg/injection, schedule: Q01DX001 (ip), vehicle: saline 88 % of control | dose: 25.0 mg/kg/injection, schedule: Q01DX001 (ip), vehicle: saline 88 % of control | dose: 50.0 mg/kg/injection, schedule: Q01DX001 (ip), vehicle: saline 88 % of control

COc1ccc(OC)c(NC(=O)Nc2cc(OC)c(Cl)cc2OC)c1
inactive: [7] 105 % of control | [8] 94 % of control | [9] 87 % of control

CB1N(c2ccccc2)B(C)N(c2ccccc2)B(C)N1c1ccccc1
inactive: [10] 103 % of control | [11] 93 % of control | [12] 97 % of control

CC(=O)N(C)c1ccc(NC(=O)Nc2ccc(C)cc2[N+](=O)[O-])cc1
inactive: [10] 94 % of control | [11] 94 % of control | [12] 94 % of control

O=C(Cc1ccccc1)Nc1ccc([N+](=O)[O-])cc1Cl
inactive: dose: 25.0 mg/kg/injection, schedule: Q01DX009 (ip), vehicle: saline with Tween-80 103 % of control | dose: 50.0 mg/kg/injection, schedule: Q01DX009 (ip), vehicle: saline with Tween-80 103 % of control | [13] 94 % of control and 100 % of control | [14] 104 % of control | dose: 150.0 mg/kg/injection, schedule: Q01DX009 (ip), vehicle: saline with Tween-80 92 % of control | [15] 101 % of control | dose: 225.0 mg/kg/injection, schedule: Q01DX009 (ip), vehicle: saline with Tween-80 97 % of control | dose: 335.0 mg/kg/injection, schedule: Q01DX009 (ip), vehicle: saline with Tween-80 103 % of control | [16] 96 % of control

S=C(n1ccnc1)n1ccnc1
inactive: dose: 25.0 mg/kg/injection, schedule: Q01DX009 (ip), vehicle: saline 100 % of control | dose: 25.0 mg/kg/injection, schedule: Q04DX003 (ip), vehicle: saline 106 % of control | dose: 50.0 mg/kg/injection, schedule: Q01DX009 (ip), vehicle: saline 95 % of control | dose: 50.0 mg/kg/injection, schedule: Q04DX003 (ip), vehicle: saline 105 % of control | dose: 100.0 mg/kg/injection, schedule: Q01DX009 (ip), vehicle: saline 103 % of control | [17] 103 % of control | dose: 150.0 mg/kg/injection, schedule: Q01DX009 (ip), vehicle: saline 94 % of control | dose: 225.0 mg/kg/injection, schedule: Q01DX009 (ip), vehicle: saline 92 % of control

Cc1cnc(NN)nc1-c1ccccc1O
inactive: dose: 25.0 mg/kg/injection, schedule: Q04DX002 (ip), vehicle: Klucel (hydroxypropylcellulose) (HPC) 95 % of control | dose: 50.0 mg/kg/injection, schedule: Q04DX002 (ip), vehicle: Klucel (hydroxypropylcellulose) (HPC) 97 % of control | [2] 105 % of control and 110 % of control

COc1ccc(CC(=S)N2CCOCC2)cc1
inactive: [7] 104 % of control | [2] 98 % of control | [8] 102 % of control | [3] 95 % of control | [9] 96 % of control

CCSc1ccc2c(cc1=O)C(NC(=S)Nc1ccccc1)CCc1cc(OC)c(OC)c(OC)c1-2 (stereo unspecified)
inactive: dose: 100.0 mg/kg/injection, schedule: Q04DX003 (ip), vehicle: carboxymethylcellulose (CMC) 102 % of control | dose: 200.0 mg/kg/injection, schedule: Q04DX003 (ip), vehicle: carboxymethylcellulose (CMC) 107 % of control

CC(=O)Oc1c2ccccc2cc2ccccc12
inactive: [2] 114 % of control | [4] 118 % of control

NC(=O)C(Cc1ccc(O)cc1)NC(=O)c1ccccc1 (stereo unspecified)
inactive: [7] 95 % of control | [10] 105 % of control | [8] 90 % of control | [11] 102 % of control | [9] 93 % of control | [12] 94 % of control

O=C(O)c1ccc(NO)cc1
inactive: dose: 24.0 mg/kg/injection, schedule: Q01DX Z (ip), vehicle: methylcellulose (MC) 103 % of control | dose: 36.0 mg/kg/injection, schedule: Q01DX Z (ip), vehicle: methylcellulose (MC) 100 % of control | dose: 55.0 mg/kg/injection, schedule: Q01DX Z (ip), vehicle: methylcellulose (MC) 102 % of control | dose: 83.0 mg/kg/injection, schedule: Q01DX Z (ip), vehicle: methylcellulose (MC) 93 % of control

IC#Cc1ccccc1
inactive: [1] 112 % of control | [5] 105 % of control | [6] 105 % of control

O/N=C1\CCn2cccc21
inactive: dose: 100.0 mg/kg/injection, schedule: Q04DX003 (ip), vehicle: saline with Tween-80 91 % of control | dose: 200.0 mg/kg/injection, schedule: Q04DX003 (ip), vehicle: saline with Tween-80 91 % of control | dose: 400.0 mg/kg/injection, schedule: Q04DX003 (ip), vehicle: saline with Tween-80 87 % of control

O=C(Cl)OCCOCCOC(=O)Cl
inactive: [17] 86 % of control | dose: 200.0 mg/kg/injection, schedule: Q01DX009 (ip), vehicle: saline 89 % of control | dose: 200.0 mg/kg/injection, schedule: Q04DX003 (ip), vehicle: saline 94 % of control | dose: 400.0 mg/kg/injection, schedule: Q01DX009 (ip), vehicle: saline 90 % of control | dose: 400.0 mg/kg/injection, schedule: Q04DX003 (ip), vehicle: saline 92 % of control

COc1cc(-c2nc3c4ccccc4c4ccccc4c3[nH]2)cc(OC)c1OC
inactive: [10] 94 % of control | [11] 96 % of control | [12] 105 % of control

CCCCCCCCCCCCCCCCC(=O)CC
inactive: [10] 96 % of control | [11] 91 % of control | [12] 92 % of control

Cc1ccc(N=C2C=CC(=O)O2)cc1
inactive: [13] 98 % of control | dose: 200.0 mg/kg/injection, schedule: Q01DX009 (ip), vehicle: saline with Tween-80 100 % of control | dose: 400.0 mg/kg/injection, schedule: Q01DX009 (ip), vehicle: saline with Tween-80 95 % of control

COc1ccc(C2=NC(=O)C(C(=O)c3ccccc3)O2)cc1 (stereo unspecified)
inactive: dose: 100.0 mg/kg/injection, schedule: Q01DX001 (ip), vehicle: saline 94 % of control | dose: 200.0 mg/kg/injection, schedule: Q01DX001 (ip), vehicle: saline 96 % of control | dose: 400.0 mg/kg/injection, schedule: Q01DX001 (ip), vehicle: saline 96 % of control

CCOC(=O)c1c(/N=C/c2ccc3c(c2)OCO3)sc2c1CCCC2
inactive: [14] 98 % of control | [15] 95 % of control | [16] 95 % of control

COc1cc(-c2ccc(N=Nc3nc4nc(N)nc(O)c4[nH]3)c(OC)c2)ccc1N=Nc1nc2nc(N)nc(O)c2[nH]1
inactive: [10] 97 % of control | [11] 100 % of control | [12] 97 % of control
